Columns and labels:
muscarinic M1 receptors [1] = assay: Isolated organ bioassay, test for antagonist activity, field-stimulated rabbit vas deferens; assay type: biochemical; conditions: for Response to McN-A-343 (1.0E−06M) in the presence of the compound, percent of the control response: mean, n=2; for Behaviour at the M1 receptors (conclusion): rabbit vas deferens
Method: (§1) Prostatic segments of rabbit vas deferens were suspended in 20-ml organ baths containing an oxygenated (95% O2 and 5% CO2) and pre-warmed (30° C.) physiological salt solution of the following composition (in mM): NaCl 118.0, KCl 4.7, MgSO4 0.6, CaCl2) 2.5, KH2PO4 1.2, NaHCO325 and glucose 11.0 (pH 7.4).
(§2) Yohimbine (1 μM) and naloxone (1 μM) were also present throughout the experiments to block the α2-adrenergic and opioid receptors, respectively.
(§3) The tissues were connected to force transducers for isometric tension recordings. They were stretched to a resting tension of 1 g then allowed to equilibrate for 60 min during which time they were washed repeatedly and the tension readjusted. Thereafter, they were stimulated electrically with square wave pulses (submaximal intensity, 1 msec duration, 0.1 Hz) delivered by a constant current stimulator.
The tissues were exposed to a submaximal concentration of the reference agonist McN-A-343 (1 μM) to obtain a control response.
If it occurred, a recovery of the twitch contraction amplitude by the test compounds indicated an antagonist activity at the M1 receptors.
(§4) The parameter measured was the maximum change in the amplitude of the electrically-evoked contractions induced by the compounds.
(§5) The results are expressed as a percent of the control response to McN-A-343 (mean values).

muscarinic M1 receptors [2] = assay: Isolated organ bioassay, test for agonist activity, field-stimulated rabbit vas deferens; assay type: biochemical; conditions: for Effect on twitch contraction amplitude (in words): untreated field-stimulated tissues
Method: as §1, §2, §3
The tissues were exposed to a submaximal concentration of the reference agonist McN-A-343 (1 μM) to verify responsiveness and to obtain a control response. Following washings and recovery of the initial twitch contractions, the tissues were exposed to the test compounds or the same agonist which were left in contact with the tissues until a stable response was obtained or for a maximum of 15 min.
as §4, §5

σ1 (h) = σ1 (h) (Homo sapiens, UniProt Q99720); assay: σ1 (h) receptor binding assay, [3H](+)pentazocine; conditions: hydrochloride; for % of Control Specific Binding, 1st / % of Control Specific Binding, 2nd / % of Control Specific Binding, Mean: 1.0E−06 M; for % of Control Specific Binding, 1st: 1st individual value; for % of Control Specific Binding, 2nd: 2nd individual value; for % Inhibition of Control Specific Binding: test concentration 1.0E−06 M
Sequence of σ1 (h) (Q99720 whole entry): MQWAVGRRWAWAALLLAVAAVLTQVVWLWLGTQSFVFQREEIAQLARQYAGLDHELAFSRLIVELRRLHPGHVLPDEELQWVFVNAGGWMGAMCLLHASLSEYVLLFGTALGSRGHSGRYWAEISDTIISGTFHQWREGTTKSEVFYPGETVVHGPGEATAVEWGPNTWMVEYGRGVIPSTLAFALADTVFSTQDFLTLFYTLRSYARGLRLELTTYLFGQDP
From the text: (§6) The specific ligand binding to the receptors is defined as the difference between the total binding and the nonspecific binding determined in the presence of an excess of unlabelled ligand.
(§7) The results are expressed as a percent of control specific binding and as a percent inhibition of control specific binding obtained in the presence of the test compounds. Individual and mean values are presented in the results section.
(§8) The IC50 values (concentration causing a half-maximal inhibition of control specific binding) and Hill coefficients (nH) were determined by non-linear regression analysis of the competition curves using Hill equation curve fitting. The inhibition constants (Ki) were calculated from the Cheng Prusoff equation (Ki=IC50/(1+(L/KD)), where L=concentration of radioligand in the assay, and KD=affinity of the radioligand for the receptor).

σ2 = biological target: T1, σ2 (Rattus norvegicus, UniProt Q5U3Y7); assay: σ2 receptor binding assay, [3H]DTG (+ 300 nM (+)pentazocine); conditions: for % of Control Specific Binding, 1st / % of Control Specific Binding, 2nd / % of Control Specific Binding, Mean: 1.0E−06 M; for % of Control Specific Binding, 1st: 1st individual value; for % of Control Specific Binding, 2nd: 2nd individual value; for % Inhibition of Control Specific Binding: test concentration 1.0E−06 M
T1 sequence (Q5U3Y7 1-176): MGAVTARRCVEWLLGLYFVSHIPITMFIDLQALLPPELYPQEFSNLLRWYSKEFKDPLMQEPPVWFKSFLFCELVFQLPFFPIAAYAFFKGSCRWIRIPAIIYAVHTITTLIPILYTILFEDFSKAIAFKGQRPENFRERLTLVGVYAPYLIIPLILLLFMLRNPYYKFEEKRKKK
From the text: as §6, §7, §8

[3] = Neuroprotection in stroke patient (Example 4); assay type: in vivo; conditions: person, ischemic event of middle cerebral artery, 1 mg i.v.
Method: A person enters the emergency room and is diagnosed with an ischemic event involving the middle cerebral artery, with symptomatology onset being less than 1 hr. Immediately, the patient is administered an i.v. supplemented with 1 mg of ⊖Anevex2-73 substantially free of Anavex2-73 ? while blood supply to the restricted area is restored.

[4] = Neuroprotection against oxidative (anoxic) stress, balloon ascent (Example 2); assay type: in vivo; conditions: 10 mgs oral daily for 5 days before ascent to 6,000 meters without oxygen assist
From the text: A person balloonist, anticipating anoxic stress, is orally administered 10 mgs of oral ⊖Anevex2-73 substantially free of Anavex2-73 ? daily for 5 days preceding a balloon ascent.

[5] = in vivo, po
[6] = Treatment of Alzheimer's patients (Examples 1 and 5); assay type: in vivo
Method: A person diagnosed with early stage Alzheimer's dementia is treated with 10 mg of ⊖Anevex2-73 substantially free of Anavex2-73 ? , once per week for three years.
A patient is diagnosed with AD and treated with 10 mg of ⊖Anevex2-73 substantially free of Anavex2-73 ? daily for 3 yrs.

SMILES | Behaviour at the M1 receptors (conclusion) (muscarinic M1 receptors [1]) | Effect on twitch contraction amplitude (in words) (muscarinic M1 receptors [2]) | % of Control Specific Binding, 1st (σ1 (h)) | % of Control Specific Binding, 2nd (σ1 (h)) | % of Control Specific Binding, Mean (σ1 (h)) | % Inhibition of Control Specific Binding (σ1 (h)) | % of Control Specific Binding, 1st (σ2; hydrochloride) | % of Control Specific Binding, 2nd (σ2; hydrochloride) | % of Control Specific Binding, Mean (σ2; hydrochloride) | % Inhibition of Control Specific Binding (σ2; hydrochloride) | further results
CN(C)CC1COC(c2ccccc2)(c2ccccc2)C1.Cl (single isomer, unassigned; (+)) [(+) A1-41, tetrahydro-N,N-dimethyl-5,5-diphenyl-3-furanmethanamine hydrochloride] | behave as antagonists at the M1 receptors | did not decrease the twitch contraction amplitude but caused a slight to moderate increase | 35.0% | 32.9% | 34.0% | 66% | 60.0% | 56.8% | 58.4% |  | Response to McN-A-343 (1.0E−06M) in the presence of the compound, percent of the control response (muscarinic M1 receptors [1]; compound 1.0E−05M, listed as (+) AE 14, hydrochloride): 1%; Response to McN-A-343 (1.0E−06M) in the presence of the compound, percent of the control response (muscarinic M1 receptors [1]; compound 1.0E−06M, listed as (+) AE 14, hydrochloride): 13%; Response to the compound (decrease in twitch contraction amplitude), percent of the control response to McN-A-343 (muscarinic M1 receptors [2]; compound 1.0E−05M, mean, n=2, listed as (+) AE 14, hydrochloride): −31%; Response to the compound (decrease in twitch contraction amplitude), percent of the control response to McN-A-343 (muscarinic M1 receptors [2]; compound 1.0E−06M, mean, n=2, listed as (+) AE 14, hydrochloride): −16%; % Inhibition of Control Specific Binding (σ2; listed as (+) A1-14, hydrochloride): 42%
CN(C)CC1CCOC1(c1ccccc1)c1ccccc1.Cl (single isomer, unassigned; (+)) [(+) A2-73, tetrahydro-N,N-dimethyl-2,2-diphenyl-3-furanmethanamine hydrochloride] |  |  | 81.5% | 81.1% | 81.3% | 19% | 88.9% | 83.2% | 86.1% | 14% | 
CN(C)CC1COC(c2ccccc2)(c2ccccc2)C1.Cl (single isomer, unassigned; (-)) [(−) A1-41, tetrahydro-N,N-dimethyl-5,5-diphenyl-3-furanmethanamine hydrochloride] | behave as antagonists at the M1 receptors | did not decrease the twitch contraction amplitude but caused a slight to moderate increase | 35.7% | 33.3% | 34.5% | 65% | 41.0% | 40.3% | 40.7% |  | Response to McN-A-343 (1.0E−06M) in the presence of the compound, percent of the control response (muscarinic M1 receptors [1]; compound 1.0E−05M, listed as (−) AE 14, hydrochloride): 9%; Response to McN-A-343 (1.0E−06M) in the presence of the compound, percent of the control response (muscarinic M1 receptors [1]; compound 1.0E−06M, listed as (−) AE 14, hydrochloride): 20%; Response to the compound (decrease in twitch contraction amplitude), percent of the control response to McN-A-343 (muscarinic M1 receptors [2]; compound 1.0E−05M, mean, n=2, listed as (−) AE 14, hydrochloride): −8%; Response to the compound (decrease in twitch contraction amplitude), percent of the control response to McN-A-343 (muscarinic M1 receptors [2]; compound 1.0E−06M, mean, n=2, listed as (−) AE 14, hydrochloride): −5%; % Inhibition of Control Specific Binding (σ2; listed as (−) A1-14, hydrochloride): 59%
CN(C)CC1CCOC1(c1ccccc1)c1ccccc1.Cl (single isomer, unassigned; (-)) [(−) A2-73, tetrahydro-N,N-dimethyl-2,2-diphenyl-3-furanmethanamine hydrochloride] | behave as antagonists at the M1 receptors | did not decrease the twitch contraction amplitude but caused a slight to moderate increase | 50.7% | 50.0% | 50.4% | 50% | 126.1% | 100.6% | 113.4% | −13% | CT/MRI imaging of the affected region [3]: no signs of lesioning in the affected region; Daily testing of cognitive and motor systems [3]: no deficits in physical or mental capacities; Anoxic damage [4]: suffers no anoxic damage; Damage after neurotoxin exposure [5]: suffers no damage; Response to McN-A-343 (1.0E−06M) in the presence of the compound, percent of the control response (muscarinic M1 receptors [1]; compound 1.0E−05M): 16%; Response to McN-A-343 (1.0E−06M) in the presence of the compound, percent of the control response (muscarinic M1 receptors [1]; compound 5.0E-05M): −1%; Response to the compound (decrease in twitch contraction amplitude), percent of the control response to McN-A-343 (muscarinic M1 receptors [2]; compound 1.0E−05M, mean, n=2): −20%; Response to the compound (decrease in twitch contraction amplitude), percent of the control response to McN-A-343 (muscarinic M1 receptors [2]; compound 5.0E−05M, mean, n=2): −33%; Cognitive score ([6]; person with AD, 10 mg daily for 3 yrs): stabilizes and then increases slowly and regularly; Brain content in amyloid peptide oligomers on autopsy ([6]; person, 10 mg once per week for three years): very low content in amyloid peptide oligomers; Mental function tested quarterly ([6]; person, early stage Alzheimer's dementia, 10 mg once per week for three years): does not decrease over the period
C[N+](C)(C)CC#CCOC(=O)Nc1cccc(Cl)c1.[Cl-] [McN-A-343, reference compound] |  | concentration-dependent decrease in the twitch contraction amplitude |  |  |  |  |  |  |  |  | Response to the compound + pirenzepine, percent of the control response to McN-A-343 (muscarinic M1 receptors [2]; + pirenzepine (1.0E−07M), mean, n=2): −5%; Response to the compound (decrease in twitch contraction amplitude), percent of the control response to McN-A-343 (muscarinic M1 receptors [2]; compound 1.0E−06M, mean, n=2): 99%; Response to the compound (decrease in twitch contraction amplitude), percent of the control response to McN-A-343 (muscarinic M1 receptors [2]; compound 1.0E−07M, mean, n=2): 29%; Response to the compound (decrease in twitch contraction amplitude), percent of the control response to McN-A-343 (muscarinic M1 receptors [2]; compound 3.0E−07M, mean, n=2): 67%

From patent US12208079B2, “Enantiomers of A2-73, analogues, and sigma agonist activity” (Anavex Life Sciences Corp., priority 2015, dated 2025)
